Assay results: patent US4399139A, “5,6-Dihydro-11-alkylene-morphanthridin-6-ones, their pharmaceutical compositions and method of use” (BASF Aktiengesellschaft, priority 1981, dated 1983)

Key:
[1] = Anti-cholinergic side-effect: mydriasis (pupil diameter) in the rat; assay type: in vivo, Sprague-Dawley rats; details: in vivo, sc, subcutaneously, ratio of mydriatic to secretion-inhibiting dose, read-out: Mydriatic action, ED 2 mm / ED 0.75
Procedure: (§1) To determine anti-cholinergic side-effects (mydriasis, inhibition of salivation), groups of from 5 to 10 female Sprague-Dawley rats (160-200 g) are given the test substance subcutaneously. After 1 hour, the pupil diameter is measured. The animals are then given 0.6 mg/kg of carbachol intraperitoneally. After 5 minutes, the saliva secreted as a result of stimulation by carbachol is blotted up with 4 cm wide strips of universal indicator paper (from Merck). The surface area of the paper colored blue by the alkaline saliva serves as a measure of the salivary secretion. The test substance is taken to inhibit salivary secretion if the blue area of the paper is more than 50% smaller than in the case of the controls. Evaluation of the linear relationships between the logarithms of the dose and the frequency of inhibition of salivation is carried out alternatively by Probit analysis. The ED 50 is taken to be the dose at which the relative frequency of inhibition of salivation is 50%.
(§2) If there is a mydriatic effect, there is a linear regression between the logarithm of the dose and the increase in pupil diameter in mm, from which the ED 2 mm, ie. the dose which increases the pupil diameter by 2 mm, is calculated.

pupil diameter = assay: as above; assay type: in vivo, Sprague-Dawley rats; details: administered subcutaneously, 1 hour, dose which increases the pupil diameter by 2 mm
Procedure: as §1, §2

gastric acid secretion = details: for ED (pH increase of 0.75): Rattus norvegicus, sc, 1 h, read-out: Inhibition of gastric acid secretion, ED 0.75; for Inhibition of gastric acid secretion, R.E. (relative effectiveness): rat, subcutaneously, relative to pirenzepine = 1.0
Procedure: The inhibition of gastric acid secretion manifests itself in a rise in the pH of the gastric mucosa. It is tested on groups of 5 conscious female Sprague-Dawley rats (160-180 g). The animals are kept without food (but with water ad libitum) for 48 hours and are then pretreated with varying doses of the test substances, administered subcutaneously. After 1 hour, they are narcotized with Na hexobarbital (46.4 mg/kg, given intravenously). A pH electrode (Philips Special Electrode, type CJP) is then introduced into the stomach and the pH at the surface of the gastric mucosa is measured (pH in the untreated animals is 1.40±0.02; N=200). The ED 0.75, ie. the dose which causes an increase in pH averaging 0.75, compared to the pH in the untreated control animals, is determined from the linear regression between logarithm of administered dose and increase in pH.

[2] = Anti-cholinergic side-effect: inhibition of carbachol-stimulated salivation in the rat; parameters: species or system Sprague-Dawley rats; details: in vivo, sc; for ED50 at 1 h: administered subcutaneously, carbachol 0.6 mg/kg intraperitoneally after 1 hour, read-out: Salivation-inhibiting action, ED 50; for selectivity ratio: subcutaneously, ratio of salivation-inhibiting to secretion-inhibiting dose, read-out: Salivation-inhibiting action, ED 50/ED 0.75
Procedure: as §1, with “After” for “To determine anti-cholinergic side-effects (mydriasis, inhibition of salivation), groups of from 5 to 10 female Sprague-Dawley rats (160-200 g) are given the test substance subcutaneously. After”, “analysis.” for “analysis. The ED 50 is taken to be the dose at which the relative frequency of inhibition of salivation is 50%.”

ulcerous lesions = assay: Anti-ulcerogenic effect in the rat (reserpine/indomethacin/cold induced ulcers); assay type: in vivo, Sprague-Dawley rats; details: for Anti-ulcerogenic effect, R.E. (relative effectiveness): orally, relative to pirenzepine = 1.0; for ED50: po, 6 h, administered orally, dose which reduces the ulcerated surface area by 50%, read-out: Anti-ulcerogenic effect, ED 50%
Procedure: To examine the anti-ulcerogenic effect, groups of 10 female Sprague-Dawley rats (weighing 160-180 g) are given 1 mg/kg of reserpine intraperitoneally, and are then left for 18 hours without food (but with water ad libitum). After this time, the animals are given 21.5 mg/kg of indomethacin intraperitoneally and the test substance orally; they are then kept for 6 hours at 8° C., after which they are killed. The stomachs are removed and the surface area of ulcerous lesions is determined.

CN1CCN(C(=O)/C=C2/c3ccccc3NC(=O)c3ccccc32)CC1 [Example 1 cis, cis-11-(4-methyl-piperazin-1-yl)-carboxamidomethylene-5,6-dihydro-morphanthridin-6-one]
selectivity ratio [1]: 6200 | Mydriatic action, ED 2 mm (pupil diameter): 198 mg/kg | ED (pH increase of 0.75) (gastric acid secretion): 0.032 mg/kg | Inhibition of gastric acid secretion, R.E. (relative effectiveness) (gastric acid secretion): 2.7 | ED50 at 1 h [2]: 50 mg/kg | selectivity ratio [2]: 1600 | Anti-ulcerogenic effect, R.E. (relative effectiveness) (ulcerous lesions): 3.8 | ED50 (ulcerous lesions): 1.7 mg/kg

CN1CCN(CC(=O)N2c3ccccc3C(=O)Nc3cccnc32)CC1 [Pirenzepine, 5,11-dihydro-11-[(4-methyl-piperazin-1-yl)-acethyl]-6H-pyrido-[2,3,b][1,4]-benzodiazepin-6-one, reference compound]
Mydriatic action, ED 2 mm (pupil diameter): 1.6 mg/kg | ED (pH increase of 0.75) (gastric acid secretion): 0.086 mg/kg | ED50 at 1 h [2]: 2 mg/kg | ED50 (ulcerous lesions): 6.5 mg/kg

CN1CCN(C(=O)C=C2c3ccccc3NC(=O)c3ccccc32)CC1 (mixture of isomers) [Example 1 cis/trans, cis,trans-11-(4-methyl-piperazin-1-yl)-carboxamidomethylene-5,6-dihydromorphanthridin-6-one]
selectivity ratio [1]: > 3900 | Mydriatic action, ED 2 mm (pupil diameter): > 215 mg/kg | ED (pH increase of 0.75) (gastric acid secretion): 0.055 mg/kg | Inhibition of gastric acid secretion, R.E. (relative effectiveness) (gastric acid secretion): > 1.6 | ED50 at 1 h [2]: 99 mg/kg | selectivity ratio [2]: 1800 | Anti-ulcerogenic effect, R.E. (relative effectiveness) (ulcerous lesions): 3.1 | ED50 (ulcerous lesions): 2.1 mg/kg
